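Test compounds were applied to cells in 96-well plates for 48 hours at 5 doses. At the GI50, growth is halved.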 Active and inactive are the calls of the source. No stated cut-off is given here; in the data, active = GI50 up to about 1.1 µM and inactive = higher.
Columns and labels:
Assay in all cases: inhibition of tumour cell growth, NCI panel, 48 h
[1] = test system: CCRF-CEM
[2] = test system: MOLT-4
[3] = test system: SK-MEL-28
[4] = test system: SK-MEL-5
[5] = test system: OVCAR-8
[6] = test system: NCI-H23
[7] = test system: PC-3
[8] = test system: T47D
[9] = test system: NCI-H522
[10] = test system: OVCAR-3
[11] = test system: SF-268
[12] = test system: SF-539
[13] = test system: ACHN
[14] = test system: M14
[15] = test system: HOP-62
[16] = test system: SK-OV-3
[17] = test system: NCI/ADR-RES
[18] = test system: HOP-92
[19] = test system: HL-60
[20] = test system: DU-145

Row | SMILES | GI50 [1] | GI50 [2] | GI50 [3] | GI50 [4] | GI50 [5] | GI50 [6] | GI50 [7] | GI50 [8] | GI50 [9] | GI50 [10] | GI50 [11] | GI50 [12] | GI50 [13] | GI50 [14] | GI50 [15] | GI50 [16] | GI50 [17] | GI50 [18] | GI50 [19] | GI50 [20]
1 | O=c1c(S(=O)(=O)Oc2ccccc2)coc2cc(F)ccc12 | 65.3 µM (inactive) | > 100 µM (inactive) | > 100 µM (inactive) | > 100 µM (inactive) | > 100 µM (inactive) | 82.2 µM (inactive) | > 100 µM (inactive) | 55 µM (inactive) | > 100 µM (inactive) | > 100 µM (inactive) | > 100 µM (inactive) | > 100 µM (inactive) | > 100 µM (inactive) | > 100 µM (inactive) | > 100 µM (inactive) | > 100 µM (inactive) | 32.4 µM (inactive) |  |  | 
2 | C/C(=C\CNc1ncnc2c1ncn2C1CCCCO1)COP(=O)(O)O (stereo unspecified) | > 100 µM (inactive) | > 100 µM (inactive) | > 100 µM (inactive) | > 100 µM (inactive) | > 100 µM (inactive) | > 100 µM (inactive) |  |  | > 100 µM (inactive) | > 100 µM (inactive) | > 100 µM (inactive) | > 100 µM (inactive) | > 100 µM (inactive) | > 100 µM (inactive) | > 100 µM (inactive) | > 100 µM (inactive) |  | > 100 µM (inactive) | > 100 µM (inactive) | 
3 | CN1CCN(C(=S)N(C)C(=O)c2ccco2)CC1 | > 100 µM (inactive) | > 100 µM (inactive) |  | > 100 µM (inactive) | > 100 µM (inactive) | > 100 µM (inactive) |  | > 100 µM (inactive) | > 100 µM (inactive) | > 100 µM (inactive) |  |  | > 100 µM (inactive) | > 100 µM (inactive) |  |  |  | > 100 µM (inactive) | > 10 µM (inactive) | > 100 µM (inactive)
4 | COC(=O)C(=O)C(C#N)c1cccc2ccccc12 (stereo unspecified) | > 100 µM (inactive) | > 100 µM (inactive) | > 100 µM (inactive) | > 100 µM (inactive) | > 100 µM (inactive) | > 100 µM (inactive) |  |  | > 100 µM (inactive) | > 100 µM (inactive) | > 100 µM (inactive) | > 100 µM (inactive) | > 100 µM (inactive) | > 100 µM (inactive) | > 100 µM (inactive) | > 100 µM (inactive) |  | > 100 µM (inactive) | > 100 µM (inactive) | 
5 | O=[N+]([O-])c1cccnc1S(=O)(=O)c1ccccc1 | 4.21 µM (inactive) | 2.84 µM (inactive) | 20 µM (inactive) | 18.1 µM (inactive) | 13.8 µM (inactive) | 15.8 µM (inactive) |  |  | 1.46 µM (inactive) | 2.01 µM (inactive) | 10.5 µM (inactive) | 11.3 µM (inactive) | 4.83 µM (inactive) | 9.4 µM (inactive) | 17.3 µM (inactive) | 20.5 µM (inactive) |  | 1.97 µM (inactive) | 2.49 µM (inactive) | 
6 | C=C=C(CC)C(C(=O)OC)N(CC)CC (stereo unspecified) | > 100 µM (inactive) | > 100 µM (inactive) | > 100 µM (inactive) | > 100 µM (inactive) | > 100 µM (inactive) | > 100 µM (inactive) |  |  | > 100 µM (inactive) | > 100 µM (inactive) | > 100 µM (inactive) | > 100 µM (inactive) | > 100 µM (inactive) | > 100 µM (inactive) | > 100 µM (inactive) | > 100 µM (inactive) |  | > 100 µM (inactive) | > 100 µM (inactive) | 
7 | CCOC(=O)c1c(SC(=O)C(C)(C)Oc2ccc(Cl)cc2)n(-c2ccccc2)c(=S)n(-c2ccccc2)c1=O | 30.1 µM (inactive) | 24.9 µM (inactive) | 62.5 µM (inactive) |  | 19.6 µM (inactive) | 61.7 µM (inactive) |  | 84.5 µM (inactive) | 39.8 µM (inactive) | 32.1 µM (inactive) | 20.2 µM (inactive) | 22.9 µM (inactive) | 23.3 µM (inactive) | 30.3 µM (inactive) | 26 µM (inactive) | 45.6 µM (inactive) | 58.6 µM (inactive) | 35.6 µM (inactive) | 19.5 µM (inactive) | 45.2 µM (inactive)
8 | N#Cc1c(-c2ccc([N+](=O)[O-])cc2)c(C#N)c(=O)n(NS(=O)(=O)c2ccccc2)c1-c1ccccc1 | > 100 µM (inactive) | > 100 µM (inactive) | > 100 µM (inactive) | > 100 µM (inactive) | > 100 µM (inactive) |  | > 100 µM (inactive) |  | > 100 µM (inactive) |  | > 100 µM (inactive) | > 100 µM (inactive) | > 100 µM (inactive) | > 100 µM (inactive) | > 100 µM (inactive) | > 100 µM (inactive) | > 100 µM (inactive) | > 100 µM (inactive) | > 100 µM (inactive) | 
9 | COc1cc2c(c(OC)c1OC)-c1ccc(OC)c(=O)cc1C(NC(=O)c1ccc(N=[N+]=[N-])cc1)CC2 (stereo unspecified) | 0.0316 µM (active) | 0.0411 µM (active) | 0.789 µM (active) | 0.0264 µM (active) | 0.0335 µM (active) | 0.0327 µM (active) |  | > 100 µM (inactive) | 0.0175 µM (active) | 0.0255 µM (active) | 0.0557 µM (active) | 0.0238 µM (active) | 0.0809 µM (active) | 0.037 µM (active) | 0.0413 µM (active) | 0.0292 µM (active) |  | 0.0396 µM (active) | 0.0272 µM (active) | 0.0378 µM (active)
10 | c1ccc2c(c1)Nc1cccc3c1c-2nc1cc2ccccc2cc13 |  |  | 1.74 µM (inactive) | 1.7 µM (inactive) |  | 1.32 µM (inactive) | 1.53 µM (inactive) |  | 1.98 µM (inactive) | 1.59 µM (inactive) | 1.71 µM (inactive) | 1.8 µM (inactive) | 1.53 µM (inactive) | 2.12 µM (inactive) | 1.72 µM (inactive) | 1.64 µM (inactive) | 2.2 µM (inactive) | 1.51 µM (inactive) |  | 1.7 µM (inactive)
11 | CC(C)/C=C1\CCC(CN(C)C)C1=O (stereo unspecified) | 1.63 µM (inactive) | 1.07 µM (active) | 2.21 µM (inactive) | 4.97 µM (inactive) | 2 µM (inactive) | 5.56 µM (inactive) | 4.66 µM (inactive) |  | 0.082 µM (active) | 2.82 µM (inactive) | 8.85 µM (inactive) | 7.29 µM (inactive) | 5.82 µM (inactive) | 1.77 µM (inactive) | 18.4 µM (inactive) | 18.3 µM (inactive) | 3 µM (inactive) | 1.31 µM (inactive) | 1.09 µM (active) | 1.81 µM (inactive)
12 | O=C(NC12CC3CC(CC(C3)C1)C2)C(=O)c1c[nH]c2ccc(Br)cc12 | 3.86 µM (inactive) | 5.41 µM (inactive) | 43.1 µM (inactive) | 41 µM (inactive) | 18.1 µM (inactive) | 33.1 µM (inactive) |  |  | 56 µM (inactive) | 11.2 µM (inactive) | 9.59 µM (inactive) | 19 µM (inactive) | 15.6 µM (inactive) | 7.05 µM (inactive) | 7.06 µM (inactive) | 25.9 µM (inactive) |  | 20.8 µM (inactive) | 5.02 µM (inactive) | 
